Columns and labels:
plasma proteins = test: Protein binding in dog plasma (dialysis); type: in vitro ADME; settings: plasma; dog, summary over concentrations; read-out: bound to plasma proteins
[1] = dog, in vivo, sc
Experimental: Male and female beagle dogs of 9 to 11 months of age for PK characterization were individually housed at the testing facility Approximately 325 g of pelleted food was provided daily. […] Animals were observed twice daily for signs of ill health, morbidity, mortality, injury, and viability, and detailed clinical observations were conducted daily (including urine/fecal examination and hands-on examination). Food was weighed daily, and body weights were recorded at least weekly.
Samples were collected in tubes containing lithium heparin and processed for plasma by centrifugation (10 minutes at 3000 rpm). Supernatant was removed and stored frozen (−70° C.) until processed (BASi, West Lafayette, Ind.). Plasma drug concentration data were used to calculate PK parameters for individual concentration data using noncompartmental PK methods in Watson™ version 7.3.0.01 (Thermo Fisher Scientific, Inc., Waltham, Mass.).

[2] = Pharmacokinetics after intravenous infusion in humans; type: in vivo; settings: Human, 30-minute IV Infusion, 2.0 mg (0.9 mg/m^2)
[3] = Major metabolites in rats dosed SC; type: in vivo

CO[C@@H]1[C@H](OC(=O)N2CC(CCN3CCOCC3)C2)CC[C@]2(CO2)[C@H]1[C@@]1(C)O[C@@H]1CC=C(C)C [Compound A]
fraction unbound at 4 h (plasma proteins): 0.3 to 0.6 | plasma concentration after the 4-hour timepoint [1]: undetectable

CO[C@@H]1[C@H](OC(=O)/C=C/c2ccc(OCCN(C)C)cc2)CC[C@]2(CO2)[C@H]1[C@@]1(C)O[C@@H]1CC=C(C)C [beloranib, reference compound]
kel [2]: 0.120 ± 0.070 h⁻¹ | AUC(0-inf) ([2]; in vivo): 5.82 ± 2.46 ng·h/mL | clearance ([2]; in vivo): 64.5 mL/min/kg | half-life ([2]; in vivo): 7.06 ± 2.66 h | Vd ([2]; in vivo, read-out: Vdss): 25.4 ± 19.2 L/kg | pathway giving the major metabolites observed [3]: GSH conjugation and subsequent metabolic degradation of the GSH conjugates
